IC50 and Activity data for four molecules are collected here from ChEMBL document CHEMBL1141794, “Alkamides from the leaves of Zanthoxylum syncarpum” (J Nat Prod, 2005).

Assay [1] deals with Plasmodium falciparum. In words: microbe, parasite or virus in culture. As to conditions: D6, 48 h.
Description: (§1) Antiplasmodial activity against chloroquine-sensitive Plasmodium falciparum D6 after 48 hrs
The subject of assay [2] is Plasmodium falciparum. In words: microbe, parasite or virus in culture. Conditions: W2, 48 h.
Description: (§2) Antiplasmodial activity against chloroquine-resistant Plasmodium falciparum W2 after 48 hrs
The test system of assay [3] is Plasmodium falciparum. Conditions: D6.
Description: as §1
Assay [4] relates to Plasmodium falciparum. Conditions: W2.
Description: as §2

SMILES strings stand for the structures. The source made the active and inactive calls. The calls are words filed in the database; no cut-off is given here.

For orientation: IC50 means the concentration needed to halve the response being measured. Read a high IC50 as weaker potency in that assay. On to `C[C@@H]1CC[C@H]2[C@@H](C)C(=O)O[C@@H]3O[C@@]4(C)CC[C@@H]1[C@]32OO4` [ARTEMISININ], for which the values for the IC50 in assay [1] and in assay [2] were 0.04 µM and 0.03 µM, respectively.
Consider `COc1ccc(C(O)CNC(=O)/C=C/c2ccccc2)cc1OC` (stereo not drawn), for which the outcome in assay [3] and in assay [4] was inactive.
For the molecule `COc1ccc([C@H](CNC(=O)/C=C/c2ccccc2)C(=O)/C=C/c2ccccc2)cc1OC`, the IC50 was determined as 4.2 µM in assay [1] and 6.1 µM in assay [2].
For `COc1ccc(C(CNC(=O)/C=C/c2ccccc2)OC(C)=O)cc1OC` (stereo not drawn), the result in assay [3] and in assay [4] was inactive.
